# Measurements: the NIST ThermoML archive (doi:10.1016/j.fluid.2006.02.016)
# Values joined by “and” are separate entries in the source; they are usually repeats but may differ in a detail not shown here. Equal entries are not always repeated. Numbers after ± are expanded uncertainties.
# Conditions: Liquid
vapor or sublimation pressure (268.15 K),vapor or sublimation pressure (278.15 K),vapor or sublimation pressure (288.15 K),vapor or sublimation pressure (298.15 K),vapor or sublimation pressure (308.15 K),vapor or sublimation pressure (318.15 K),Compound,vapor or sublimation pressure (273.15 K),vapor or sublimation pressure (283.15 K),vapor or sublimation pressure (293.15 K),vapor or sublimation pressure (303.15 K),vapor or sublimation pressure (313.15 K),vapor or sublimation pressure (323.15 K)
407.9 ± 3.3 kPa,549.4 ± 4.2 kPa,735 ± 5.4 kPa,954.8 ± 6.8 kPa,1213 ± 8.4 kPa,1530.8 ± 10 kPa,CCC [propane],474.6 ± 3.7 kPa,636.6 ± 4.7 kPa,836.2 ± 6 kPa,1078.4 ± 7.6 kPa,1369 ± 12 kPa and 1363.8 ± 9.4 kPa,1709.2 ± 12 kPa
529.2 ± 4 kPa,722.4 ± 5.3 kPa,962 ± 6.8 kPa,1261.8 ± 8.7 kPa,1619.8 ± 11 kPa,2055.2 ± 14 kPa,"CC(F)(F)F [1,1,1-trifluoroethane]",,,,,,
,,,,,,"FCC(F)(F)F [1,1,1,2-tetrafluoroethane]",294.2 ± 2.5 kPa,416.9 ± 3.3 kPa,571.9 ± 4.3 kPa,770.4 ± 5.6 kPa,1012.8 ± 7.1 kPa,1313.8 ± 9.1 kPa
